Source: patent US20050229276A1, “Method of producing cyclamen root tuber and method of proliferating cyclamen using the same” (Tokyo University of Agricultural, priority 2002, published 2005)

System: cyclamen root tuber
Test: Germination and rooting of cut-off root tubers in solid media
Type: in vivo
Design: Germination rate / Rooting rate: unit not given here
Conditions: NAA 0.05 mg/l
Experimental: The cyclamen root tuber obtained was cut off from the parent body and planted in an experimental plot prepared by adding 30 to 90 g/l of sucrose, NAA and BA to the ⅓ MS medium as shown in Table 4.6 g/l of agar was added to the medium which was then sterilized in an autoclave to prepare a solid medium having a pH of 7.0. The culture test tube was left under illumination for 12 hours a day and in the dark for 12 hours. As a result, the root tubers germinated and rooted while enlarging.

[1] = BA 0.05 mg/l (second 0.05 block, r16), sucrose 30 g/l, 60-th day
[2] = BA 0.05 mg/l (second 0.05 block, r16), sucrose 30 g/l, 97-th day
[3] = BA 0.05 mg/l (second 0.05 block, r16), sucrose 30 g/l, 127-th day
[4] = BA 0.05 mg/l (second 0.05 block, r17), sucrose 50 g/l, 60-th day
[5] = BA 0.05 mg/l (second 0.05 block, r17), sucrose 50 g/l, 97-th day
[6] = BA 0.05 mg/l (second 0.05 block, r17), sucrose 50 g/l, 127-th day
[7] = BA 0.05 mg/l (second 0.05 block, r18), sucrose 70 g/l, 60-th day
[8] = BA 0.05 mg/l (second 0.05 block, r18), sucrose 70 g/l, 97-th day
[9] = BA 0.05 mg/l (second 0.05 block, r18), sucrose 70 g/l, 127-th day
[10] = BA 0.05 mg/l (second 0.05 block, r19), sucrose 90 g/l, 60-th day
[11] = BA 0.05 mg/l (second 0.05 block, r19), sucrose 90 g/l, 97-th day
[12] = BA 0.05 mg/l (second 0.05 block, r19), sucrose 90 g/l, 127-th day
[13] = BA 0.05 mg/l, sucrose 30 g/l, 60-th day
[14] = BA 0.05 mg/l, sucrose 30 g/l, 97-th day
[15] = BA 0.05 mg/l, sucrose 30 g/l, 127-th day
[16] = BA 0.05 mg/l, sucrose 50 g/l, 60-th day
[17] = BA 0.05 mg/l, sucrose 50 g/l, 97-th day
[18] = BA 0.05 mg/l, sucrose 50 g/l, 127-th day
[19] = BA 0.05 mg/l, sucrose 70 g/l, 60-th day
[20] = BA 0.05 mg/l, sucrose 70 g/l, 97-th day
[21] = BA 0.05 mg/l, sucrose 70 g/l, 127-th day
[22] = BA 0.05 mg/l, sucrose 90 g/l, 60-th day
[23] = BA 0.05 mg/l, sucrose 90 g/l, 97-th day
[24] = BA 0.05 mg/l, sucrose 90 g/l, 127-th day
[25] = BA 0.1 mg/l, sucrose 30 g/l, 60-th day
[26] = BA 0.1 mg/l, sucrose 30 g/l, 97-th day
[27] = BA 0.1 mg/l, sucrose 30 g/l, 127-th day
[28] = BA 0.1 mg/l, sucrose 50 g/l, 60-th day
[29] = BA 0.1 mg/l, sucrose 50 g/l, 97-th day
[30] = BA 0.1 mg/l, sucrose 50 g/l, 127-th day
[31] = BA 0.1 mg/l, sucrose 70 g/l, 60-th day
[32] = BA 0.1 mg/l, sucrose 70 g/l, 97-th day
[33] = BA 0.1 mg/l, sucrose 70 g/l, 127-th day
[34] = BA 0.1 mg/l, sucrose 90 g/l, 60-th day
[35] = BA 0.1 mg/l, sucrose 90 g/l, 97-th day
[36] = BA 0.1 mg/l, sucrose 90 g/l, 127-th day
[37] = BA 1.0 mg/l, sucrose 30 g/l, 60-th day
[38] = BA 1.0 mg/l, sucrose 30 g/l, 97-th day
[39] = BA 1.0 mg/l, sucrose 30 g/l, 127-th day
[40] = BA 1.0 mg/l, sucrose 50 g/l, 60-th day
[41] = BA 1.0 mg/l, sucrose 50 g/l, 97-th day
[42] = BA 1.0 mg/l, sucrose 50 g/l, 127-th day
[43] = BA 1.0 mg/l, sucrose 70 g/l, 60-th day
[44] = BA 1.0 mg/l, sucrose 70 g/l, 97-th day
[45] = BA 1.0 mg/l, sucrose 70 g/l, 127-th day
[46] = BA 1.0 mg/l, sucrose 90 g/l, 60-th day
[47] = BA 1.0 mg/l, sucrose 90 g/l, 97-th day
[48] = BA 1.0 mg/l, sucrose 90 g/l, 127-th day

c1ccc(CNc2ncnc3[nH]cnc23)cc1 [BA, benzylaminopurine]
Enlarging ratio [1]: 3.23 | Germination rate [1]: 40 | Rooting rate [1]: 20 | Enlarging ratio [2]: 3.97 | Germination rate [2]: 40 | Rooting rate [2]: 40 | Enlarging ratio [3]: 4.23 | Germination rate [3]: 40 | Rooting rate [3]: 40 | Enlarging ratio [4]: 2.52 | Germination rate [4]: 40 | Rooting rate [4]: 0 | Enlarging ratio [5]: 2.85 | Germination rate [5]: 60 | Rooting rate [5]: 0 | Enlarging ratio [6]: 3.25 | Germination rate [6]: 60 | Rooting rate [6]: 20 | Germination rate [7]: 20 | Rooting rate [7]: 20 | Germination rate [8]: 40 | Rooting rate [8]: 20 | Germination rate [9]: 40 | Rooting rate [9]: 20 | Enlarging ratio [10]: 2.67 | Germination rate [10]: 0 | Rooting rate [10]: 20 | Enlarging ratio [11]: 4.98 | Germination rate [11]: 60 | Rooting rate [11]: 20 | Enlarging ratio [12]: 5.78 | Germination rate [12]: 60 | Rooting rate [12]: 20 | Enlarging ratio [13]: 2.17 | Germination rate [13]: 20 | Rooting rate [13]: 40 | Enlarging ratio [14]: 2.41 | Germination rate [14]: 80 | Rooting rate [14]: 40 | Enlarging ratio [15]: 2.47 | Germination rate [15]: 80 | Rooting rate [15]: 40 | Enlarging ratio [16]: 2.83 | Germination rate [16]: 20 | Rooting rate [16]: 20 | Enlarging ratio [17]: 3.43 | Germination rate [17]: 60 | Rooting rate [17]: 80 | Enlarging ratio [18]: 4.23 | Germination rate [18]: 60 | Rooting rate [18]: 80 | Germination rate [19]: 40 | Rooting rate [19]: 0 | Germination rate [20]: 40 | Rooting rate [20]: 60 | Germination rate [21]: 40 | Rooting rate [21]: 60 | Enlarging ratio [22]: 1.93 | Germination rate [22]: 40 | Rooting rate [22]: 20 | Enlarging ratio [23]: 2.11 | Germination rate [23]: 40 | Rooting rate [23]: 60 | Enlarging ratio [24]: 2.11 | Germination rate [24]: 40 | Rooting rate [24]: 60 | Enlarging ratio [25]: 2.05 | Germination rate [25]: 40 | Rooting rate [25]: 40 | Enlarging ratio [26]: 2.35 | Germination rate [26]: 60 | Rooting rate [26]: 80 | Enlarging ratio [27]: 2.35 | Germination rate [27]: 60 | Rooting rate [27]: 80 | Enlarging ratio [28]: 2.40 | Germination rate [28]: 20 | Rooting rate [28]: 40 | Enlarging ratio [29]: 2.90 | Germination rate [29]: 40 | Rooting rate [29]: 40 | Enlarging ratio [30]: 3.10 | Germination rate [30]: 60 | Rooting rate [30]: 60 | Enlarging ratio [31]: 1.40 | Germination rate [31]: 20 | Rooting rate [31]: 0 | Enlarging ratio [32]: 2.47 | Germination rate [32]: 40 | Rooting rate [32]: 0 | Enlarging ratio [33]: 2.73 | Germination rate [33]: 40 | Rooting rate [33]: 20 | Enlarging ratio [34]: 2.68 | Germination rate [34]: 0 | Rooting rate [34]: 40 | Enlarging ratio [35]: 3.28 | Germination rate [35]: 0 | Rooting rate [35]: 40 | Enlarging ratio [36]: 3.28 | Germination rate [36]: 20 | Rooting rate [36]: 40 | Enlarging ratio [37]: 2.25 | Germination rate [37]: 0 | Rooting rate [37]: 0 | Enlarging ratio [38]: 3.50 | Germination rate [38]: 40 | Rooting rate [38]: 0 | Enlarging ratio [39]: 3.95 | Germination rate [39]: 40 | Rooting rate [39]: 0 | Enlarging ratio [40]: 2.27 | Germination rate [40]: 20 | Rooting rate [40]: 0 | Enlarging ratio [41]: 3.18 | Germination rate [41]: 40 | Rooting rate [41]: 20 | Enlarging ratio [42]: 4.02 | Germination rate [42]: 40 | Rooting rate [42]: 20 | Enlarging ratio [43]: 2.25 | Germination rate [43]: 0 | Rooting rate [43]: 20 | Enlarging ratio [44]: 4.03 | Germination rate [44]: 20 | Rooting rate [44]: 40 | Enlarging ratio [45]: 4.81 | Germination rate [45]: 20 | Rooting rate [45]: 60 | Enlarging ratio [46]: 1.84 | Germination rate [46]: 40 | Rooting rate [46]: 20 | Enlarging ratio [47]: 2.11 | Germination rate [47]: 60 | Rooting rate [47]: 40 | Enlarging ratio [48]: 2.47 | Germination rate [48]: 60 | Rooting rate [48]: 40
